This note sets out measurements from PubChem BioAssay (NCI).

Common to all, as to assay: DTP human tumour cell line panel, 48 h
Experiment [1] relates to NCI/ADR-RES ovarian.
Experiment [2] concerns OVCAR-3 ovarian.
Experiment [3] deals with SNB-75 CNS.
The test system of experiment [4] is ACHN renal.
In experiment [5] the test system is SNB-19 CNS.
The test system of experiment [6] is HOP-62 NSCLC.
In experiment [7] the test system is CAKI-1 renal.
For experiment [8], the system named is OVCAR-4 ovarian.
In experiment [9] the test system is HS 578T breast.
The test system of experiment [10] is NCI-H460 lung.

Structures are written as SMILES. Where “and” joins values, the source holds several entries; their conditions need not be identical. Equal values may be shown once.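 Growth conditions: 96-well plates. Treatment: test compound, 48 hours, 5 concentrations. Analysis: linear interpolation between bracketing concentrations; unreached endpoints set to highest concentration. GI50 is the concentration that inhibits growth by half. TGI marks complete inhibition of growth.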

Take `O=C(Oc1cncc(Cl)c1)c1cc2ccccc2sc1=O`: the TGI in [1], in [2], in experiment [3], in [4], in experiment [5] and in experiment [6] was over 100 µM in each case. For the same molecule, the TGI in experiment [7], in [8], in experiment [9] and in experiment [10] was over 100 µM in each case.
As for `O=C(NNC(=O)c1ccncc1)C(=O)Nc1cc(Cl)c(Cl)cc1Cl`, the total growth inhibition concentration (TGI) in experiment [1], in experiment [2], in experiment [3], in experiment [4], in experiment [5] and in experiment [6] was over 100 µM throughout. For the same molecule, the TGI in experiment [7], in experiment [8], in experiment [9] and in experiment [10] was over 100 µM throughout.
Consider `CNCC(SC)c1ccc(O)c(O)c1` (centres undefined), for which the total growth inhibition concentration (TGI) in experiment [1] is over 100 µM; in [2], 40.9 µM; in experiment [3], over 100 µM; in experiment [4] it was 33.4 µM; in experiment [5], over 100 µM; in experiment [6], over 100 µM. The TGI in experiment [7] is 38 µM; in [8], 32.5 µM; in experiment [9], over 100 µM; in [10] it was 33.2 µM.
`COC1(C)CCC(OS(C)(=O)=O)CO1` (centres undefined): the TGI in experiment [1], in [2], in experiment [3], in [4], in [5] and in [6] was over 100 µM throughout. The TGI in experiment [7], in experiment [8], in [9] and in experiment [10] was over 100 µM throughout.
On to `C=CC(C)(C)/C(=C\CO[Si](C(C)C)(C(C)C)C(C)C)C(=O)N(C)c1ccccc1I`, for which the TGI was 37.6 µM in experiment [1]; 26.2 µM in experiment [2]; 31.7 µM in [3]; 25.8 µM in experiment [4]; 28.1 µM in [5]; 35.8 µM in experiment [6]. The TGI is 44 µM in experiment [7], 68.1 µM in [8], 27.1 µM in experiment [9] and 28.1 µM in [10].
In the case of `Cc1cccc(NC(=S)Nc2cccc(Cl)c2)n1`, the TGI in experiment [1], in experiment [2], in experiment [3], in [4], in [5] and in [6] was over 100 µM each time. Moreover, the TGI in experiment [7], in experiment [8], in experiment [9] and in experiment [10] was over 100 µM each time.
In the case of `CC(C)=CC(=O)OC1C2C(C)=CC(=O)C(O)C2(C)C2C3(O)OCC24C(CC(=O)OC14)C(C)C3O` (centres undefined), the GI50 in experiment [1] is 6.65 µM and 2.24 µM; in [3] it was 0.0338 µM; in [5], 0.0273 µM; in experiment [6] it was 0.0315 µM; in experiment [7] it was 0.245 µM and 1.13 µM and 0.293 µM; in [8], 0.02 µM. In [10], the 50% growth inhibitory concentration (GI50) was 0.00788 µM. In addition, the concentration for total growth inhibition (TGI) is 0.0226 µM and 0.0354 µM in [2]; 0.0621 µM and 0.0711 µM and 0.062 µM in [3]; 0.443 µM in [4]; 0.0303 µM and 0.0462 µM in [5]; 0.0504 µM and 0.0103 µM and 0.0948 µM in experiment [6]; 0.00523 µM in experiment [9]. Further, the TGI in experiment [10] is 0.0298 µM and 0.0334 µM.
On to `CC(C)(C)c1cc(C(C)(C)C)c(SC2OC(CO)C(O)C(O)C2O)c(O)c1O` (centres undefined), for which the TGI in [1] was 34.3 µM; in [2], 28.4 µM; in experiment [3], 6.05 µM; in experiment [4], 22.8 µM; in experiment [5], 24.5 µM; in experiment [6], 33.9 µM. Besides, the TGI in experiment [7] is over 84.9 µM; in [8] it was over 61.9 µM; in experiment [9] it was 11.6 µM; in experiment [10], 10.5 µM.
`CN1CCC(O)(OC(=O)C(c2ccccc2)C2(O)CCCC2)CC1` (centres undefined): the total growth inhibition concentration (TGI) in experiment [1], in experiment [2], in experiment [3], in experiment [4], in experiment [5] and in experiment [6] was over 100 µM throughout. In addition, the TGI in [7], in experiment [8], in experiment [9] and in experiment [10] was over 100 µM in each case.
